Laboratory results as given in patent US5114464A, “4-quinoxalinyloxyphenoxyalkylinitrile herbicides” (Uniroyal Chemical Company, Inc., priority 1990, dated 1992).

Key:
green foxtail [1] = assay: Postemergence control of green foxtail (Table II); type: in vivo, Setaria viridis (L.) Beauv.; conditions: 3000 ppm, two weeks after treatment
Experimental: (§1) To illustrate the effectiveness of the Compounds 1 and 2 of this invention as preemergence herbicides, 300 mg of each compound were dissolved in 10 ml acetone to which 30 mg of an emulsifying agent, ethoxylated sorbitan monolaurate, were added. The solution was diluted to 100 ml with distilled water. Ten milliliters of the 3000 ppm solution were diluted to 250 ppm with distilled water. The chemical was applied at the rate of 10 lb/A (11.2 kg/ha) by drenching 46 ml of the 250 ppm solution on the surface of soil in 41/2inch (11.25 cm) plastic pots wherein seeds of the following weeds had been planted: velvet leaf (Abutilon theoohrasti Medic.) (VL), prickly sida (sida soinosa L.) (PS), tall morningglory (Ioomea purourea L. Roth) (TM), switchgrass (Panicum viroatum L.) (SG), barnyard grass (Echinolchloa crus-oalli (L.) Beauv.) (BG), and green foxtail (Setaria viridis) (L.) Beauv.) (GF). The percent control of the weeds compared to untreated checks was determined two weeks after treatment.
(§2) To test the effectiveness of Compounds 1 and 2 of this invention as postemergence herbicides, a 3000 ppm solution of each compound (produced in accordance with the process described under Example 3) was atomized employing a DEVILBISS [trademark] sprayer, wetting the foliage to the drip point. […] The percent weed control was evaluated two weeks after treatment.

corn = assay: Postemergence selectivity, greenhouse: corn injury (Table III); type: in vivo; conditions: 250 ppm
Experimental: as §1
(§3) To illustrate the effectiveness of Compound 1 of this invention as a corn-safe selective postemergence herbicide, the 3000 ppm solution prepared as described in Example 3 was diluted with distilled water to 250 ppm and applied to foliage as described in Example 3. The commercial product Hoelon 3EC® (Hoechst) was included as a standard. […] The percent weed control and crop injury was determined on Jun. […]

switchgrass [2] = assay: Postemergence selectivity, greenhouse: switchgrass control (Table III); type: in vivo, Panicum viroatum L.; conditions: 250 ppm, treated May 26, rated Jun. 12
Experimental: as §1, §3

green foxtail [3] = assay: Postemergence selectivity, greenhouse: green foxtail control (Table III); type: in vivo, Setaria viridis (L.) Beauv.; conditions: 250 ppm, treated May 26, rated Jun. 12
Experimental: as §1, §3

switchgrass [4] = assay: Preemergence control of switchgrass (Table I); type: in vivo, Panicum viroatum L.; conditions: 11.2 kg/ha, two weeks after treatment
Experimental: as §1

grass weeds [5] = assay: Postemergence selectivity field test (Example 6), summary for grass weeds; type: in vivo; conditions: 0.125 to 0.50 lb/a
Experimental: (§4) To further illustrate the effectiveness of Compound 1 of this invention as a corn-safe selective postemergence herbicide, field tests were run in which five corn hybrids (designated C9979, C6114, C8004 and C1914 by the Independent Professional Seedsmans Association, and Pioneer 3295) along with two grass weeds (Giant foxtail, "GF"; and Barnyard grass, "BG") were planted in an Illinois field on April 24. The crops were treated with various amounts of Compound 1 in early Jun., and the amount of crop control was evaluated 33 days after treatment compared to an untreated control. The active ingredient was formulated as follows: […]
(§5) That produces a formulation containing 10% active ingredient by weight. The required amount of formulation to produce the indicated rate per acre is added to water, mixed with one quart of an adjuvant containing 83% mineral oil and 17% emulsifiers, then brought up to a total spray volume of 20 gallons per acre with water.

grass weeds [6] = assay: Postemergence selectivity greenhouse (Example 5), summary for grass weeds; type: in vivo; conditions: 250 ppm
Experimental: as §1, §3

velvet leaf [7] = assay: Postemergence control of velvet leaf (Table II); type: in vivo, Abutilon theoohrasti Medic.; conditions: 3000 ppm, two weeks after treatment
Experimental: as §1, §2

corn hybrids = assay: Postemergence selectivity, field test: corn hybrids (Table IV); type: in vivo; conditions: for Percent corn crop control (injury): 33 days
Experimental: as §4, §5

Barnyard grass [8] = assay: Postemergence selectivity, field test: Barnyard grass control (Table IV); type: in vivo; conditions: 33 days after treatment
Experimental: as §4, §5

Giant foxtail = assay: Postemergence selectivity, field test: Giant foxtail control (Table IV); type: in vivo; conditions: 33 days after treatment
Experimental: as §4, §5

green foxtail [9] = assay: Preemergence control of green foxtail (Table I); type: in vivo, Setaria viridis (L.) Beauv.; conditions: 11.2 kg/ha, two weeks after treatment
Experimental: as §1

barnyard grass [10] = assay: Postemergence selectivity, greenhouse: barnyard grass control (Table III); type: in vivo, Echinolchloa crus-oalli (L.) Beauv.; conditions: 250 ppm, treated May 26, rated Jun. 12
Experimental: as §1, §3

weeds [11] = assay: Postemergence control, summary statement; type: in vivo; conditions: 3000 ppm
Experimental: as §1, §2

velvet leaf [12] = assay: Preemergence control of velvet leaf (Table I); type: in vivo, Abutilon theoohrasti Medic.; conditions: 11.2 kg/ha, two weeks after treatment
Experimental: as §1

tall morningglory [13] = assay: Preemergence control of tall morningglory (Table I); type: in vivo, Ioomea purourea L. Roth; conditions: 11.2 kg/ha, two weeks after treatment
Experimental: as §1

soybean = assay: Postemergence selectivity, greenhouse: soybean injury (Table III); type: in vivo; conditions: 250 ppm, treated May 26, rated Jun. 12
Experimental: as §1, §3

prickly sida [14] = assay: Preemergence control of prickly sida (Table I); type: in vivo, sida soinosa L.; conditions: 11.2 kg/ha, two weeks after treatment
Experimental: as §1

weeds [15] = assay: Preemergence control, summary statement; type: in vivo; conditions: 11.2 kg/ha
Experimental: as §1

cotton = assay: Postemergence selectivity, greenhouse: cotton injury (Table III); type: in vivo; conditions: 250 ppm, treated May 26, rated Jun. 12
Experimental: as §1, §3

tall morningglory [16] = assay: Postemergence control of tall morningglory (Table II); type: in vivo, Ioomea purourea L. Roth; conditions: 3000 ppm, two weeks after treatment
Experimental: as §1, §2

barnyard grass [17] = assay: Preemergence control of barnyard grass (Table I); type: in vivo, Echinolchloa crus-oalli (L.) Beauv.; conditions: 11.2 kg/ha, two weeks after treatment
Experimental: as §1

switchgrass [18] = assay: Postemergence control of switchgrass (Table II); type: in vivo, Panicum viroatum L.; conditions: 3000 ppm, two weeks after treatment
Experimental: as §1, §2

barnyard grass [19] = assay: Postemergence control of barnyard grass (Table II); type: in vivo, Echinolchloa crus-oalli (L.) Beauv.; conditions: 3000 ppm, two weeks after treatment
Experimental: as §1, §2

prickly sida [20] = assay: Postemergence control of prickly sida (Table II); type: in vivo, sida soinosa L.; conditions: 3000 ppm, two weeks after treatment
Experimental: as §1, §2

## N#CCOc1ccc(Oc2cnc3cc(Cl)ccc3n2)cc1 [Compound 1, 2-[4-(6-chloro-2-quinoxalinyloxy)phenoxy]acetonitrile]
Green foxtail [1]
  % Control GF: 9%
corn
  corn safety: substantially innocuous to corn
corn; treated May 26, rated Jun. 12
  Percent crop injury CORN: 0%
Switchgrass [2]
  Percent weed control SG: 100%
Green foxtail [3]
  Percent Weed Control GF: 90%
Switchgrass [4]
  % Control SG: 50%
Grass weeds [5]
  control of several grass weeds: good control of several grass weeds
Grass weeds [6]
  control of several grass weeds: good control of several grass weeds
Velvet leaf [7]
  % Control VL: 0%
Corn hybrids; 0.125 to 0.50 lb/a
  corn safety: substantially innocuous to corn
Corn hybrids; corn hybrid C1914, 0.125 lb/a
  Percent corn crop control (injury): 0%
Corn hybrids; corn hybrid C1914, 0.25 lb/a
  Percent corn crop control (injury): 0%
Corn hybrids; corn hybrid C1914, 0.50 lb/a
  Percent corn crop control (injury): 0%
Corn hybrids; corn hybrid C6114, 0.125 lb/a
  Percent corn crop control (injury): 0%
Corn hybrids; corn hybrid C6114, 0.25 lb/a
  Percent corn crop control (injury): 0%
Corn hybrids; corn hybrid C6114, 0.50 lb/a
  Percent corn crop control (injury): 0%
Corn hybrids; corn hybrid C8004, 0.125 lb/a
  Percent corn crop control (injury): 0%
Corn hybrids; corn hybrid C8004, 0.25 lb/a
  Percent corn crop control (injury): 0%
Corn hybrids; corn hybrid C8004, 0.50 lb/a
  Percent corn crop control (injury): 0%
Corn hybrids; corn hybrid C9979, 0.125 lb/a
  Percent corn crop control (injury): 0%
Corn hybrids; corn hybrid C9979, 0.25 lb/a
  Percent corn crop control (injury): 0%
Corn hybrids; corn hybrid C9979, 0.50 lb/a
  Percent corn crop control (injury): 0%
Corn hybrids; corn hybrid Pioneer 3295, 0.125 lb/a
  Percent corn crop control (injury): 0%
Corn hybrids; corn hybrid Pioneer 3295, 0.25 lb/a
  Percent corn crop control (injury): 0%
Corn hybrids; corn hybrid Pioneer 3295, 0.50 lb/a
  Percent corn crop control (injury): 0%
Barnyard grass [8]; 0.125 lb/a
  Percent Weed Control BG: 30.0%
Barnyard grass [8]; 0.25 lb/a
  Percent Weed Control BG: 43.3%
Barnyard grass [8]; 0.50 lb/a
  Percent Weed Control BG: 90.0%
Giant foxtail; 0.125 lb/a
  Percent Weed Control GF: 99.3%
Giant foxtail; 0.25 lb/a
  Percent Weed Control GF: 100%
Giant foxtail; 0.50 lb/a
  Percent Weed Control GF: 100%
Green foxtail [9]
  % Control GF: 90%
Barnyard grass [10]
  Percent Weed Control BG: 100%
Weeds [11]
  postemergent herbicidal control: desirable postemergent herbicidal control
Velvet leaf [12]
  % Control VL: 0%
Tall morningglory [13]
  % Control TM: 0%
soybean
  Percent crop injury SOYBEAN: 0%
Prickly sida [14]
  % Control PS: 0%
Weeds [15]
  herbicidal efficacy: good to excellent herbicidal efficacy
cotton
  Percent crop injury COTTON: 0%
Tall morningglory [16]
  % Control TM: 0%
Barnyard grass [17]
  % Control BG: 100%
Switchgrass [18]
  % Control SG: 100%
Barnyard grass [19]
  % Control BG: 100%
Prickly sida [20]
  % Control PS: 0%
